In US10639289B2, “Application of neuraminidase and inhibitors thereof in myocardial ischemia and myocardial infarction” (CHINA PHARMACEUTICAL UNIVERSITY, priority 2016, dated 2020):

Tests used:
[1] = tested on: isoproterenol-induced acute myocardial ischemia; test: Electrocardiogram in the acute myocardial ischemia model in rats with ISO; format: in vivo, SD rats; settings: for Impact on the ECG (myocardial damage): all dose groups, in words
Protocol: (§1) 1. The acute myocardial ischemia model in rats with ISO: SD rats are selected and divided according to body weight into six groups: blank control group, model group, ZA high dose group (0.5 mg/kg iv) and ZA low dose group (0.2 mg/kg iv), OS high dose group (10 mg/kg po), OS low dose group (5 mg/kg po), with 10 rats in each group. The groups with drug administration are administered the drugs continuously for 3 days, and on the second day of drug administration, and 30 minutes after the drug administration, they are performed subcutaneous injection of ISO at a dose of 60 mg/kg; on the third day of drug administration, and 30 minutes after the drug administration, they are also performed subcutaneous injection of ISO at a dose of 60 mg/kg; on the fourth day their tissue samples such as blood and heart are collected on the fourth day.
3.1 Record the Electrocardiogram
Record the electrocardiogram of each group using standard II lead
(§2) 1. The acute myocardial ischemia model in rats with ISO: SD rats are selected and divided according to body weight into five groups: blank control group, model group, coptisine high dose group (100 mg/kg p.o.) and coptisine medium dose group 25 mg/kg p.o.), coptisine low dose group (10 mg/kg p.o.), with 10 rats in each group. The groups with drug administration are administered the drugs continuously for 3 days, and on the second day of drug administration, and 30 minutes after the drug administration, they are performed subcutaneous injection of ISO at a dose of 60 mg/kg; on the third day of drug administration, and 30 minutes after the drug administration, they are also performed subcutaneous injection of ISO at a dose of 60 mg/kg; on the fourth day their tissue samples such as blood and heart are collected on the fourth day.
3.1 Record ECG: Same as Embodiment 1.

[2] = tested on: isoproterenol-induced acute myocardial ischemia; test: Cardiac pathology (HE sections) in the acute myocardial ischemia model in rats with ISO; format: in vivo, SD rats; settings: for Effect on myocardial cell morphology (cardiac pathological sections): all dose groups, in words
Protocol: as §1
3.2 Observe the Cardiac Pathology
Fix the myocardial tissue of the apical site of the hearts in 10% formaldehyde solution, obtain material conventionally, perform dehydration, embedding in paraffin, and make it into sheets (4 μm thick), stain them with HE, and observe them under an optical microscope.
as §2
3.2 Observing the pathological section of the heart: same as in Embodiment 1.

[3] = tested on: myocardial neuraminidase; test: Myocardial neuraminidase level by ELISA after isoproterenol modeling; format: in vivo, SD rats; settings: ISO model rats; for Effect on the expression level of myocardial neuraminidase: ELISA, in words; for Neuraminidase concentration (myocardial neuraminidase expression level): 3 days
Protocol: as §1, with “day. […]” for “day.”
3.3 Determination of Myocardial Neuraminidase Level
The level of myocardial neuraminidase in the rat is detected by […], and the detection kit is a neuraminidase detection kit, which is measured according to the instruction manual of the test kit.
as §2
3.3 Method for determination of myocardial neuraminidase level: same as in Embodiment 1.

[4] = tested on: serum CK-MB and D-LDH; test: Serum myocardial damage indicators CK-MB and D-LDH after isoproterenol modeling; format: in vivo, SD rats; design: Serum CK-MB concentration: unit not given here; settings: ISO model rats; for Serum CK-MB concentration / Serum D-LDH concentration: 3 days
Protocol: as §1
3.4 the Detection Method for Serum Myocardial Damage Indicator CK-MB and D-LDH
Measure CK-MB and D-LDH according to the CK-MB detection kit (Roche) and D-LDH detection kit (Invitrogen) operating instructions, respectively.
as §2
3.4 Detection method for serum myocardial damage index CK-MB and D-LDH: same as in Embodiment 1.

[5] = tested on: left anterior descending coronary artery ligation model; test: Acute myocardial ischemia model in rats with left anterior descending coronary artery ligation; format: in vivo, SD rats; settings: in words
Protocol: 2. The acute myocardial ischemia model in rats with left anterior descending coronary artery ligation: SD rats are selected and divided into 6 groups according to body weight: blank control group, model group, ZA high dose group (0.5 mg/kg iv). ZA low dose group, (0.2 mg/kg iv), OS high-dose group (10 mg/kg po) and OS low-dose group (5 mg/kg po), with 10 rats in each group. The groups with drug administration are pre-administered drugs 24 h and 12 h in advance before the rats are anesthetized with 3% chloral hydrate at 10 ml/kg, laid flat on their backs and fixed on the rat plate. Then cut them open at between left 4th and 5th ribs to open the pericardium, expose the heart, gently press the thorax to extrude the heart, find the left anterior descending coronary artery in the pulmonary artery cone and left atrium, and immediately bind the root of the left anterior descending coronary artery (pulmonary artery cone and left atrial appendage) with suture 0; push the heart back to the chest, and squeeze out the blood and gas in the chest cavity, close the chest cavity quickly, suture the skin, and the chest opening time is no more than 30 s. […]
The level of myocardial neuraminidase in the rat is detected by […], and the detection kit is a neuraminidase detection kit, which is measured according to the instruction manual of the test kit. […]

[6] = tested on: neuraminidase; test: Inhibitory rate on neuraminidase (neuraminidase assay kit, fluorescence); format: biochemical
Protocol: 3.5 Determination of the inhibitory rate of coptisine on neuraminidase
Neuraminidase activity is determined using a neuraminidase assay kit. Accurately weigh standard coptisine, and prepare 200 μM (high dose group), 100 μM (medium dose group), and 50 μM (low dose group) solution in that order. To prepare a standard curve, add 70 μl of neuraminidase assay buffer to each well in a 96-well fluorescent plate, and add 0, 1, 2, 5, 7.5 and 10 μl of neuraminidase to each well, respectively. Then add […] of Milli-Q water per well so the total volume of each well is 90 μl. To test the sample, add 70 μl of neuraminidase detection buffer to each well of a 96-well fluorescent plate, then add 10 μl of neuraminidase and 10 μl of coptisine solution in different concentrations per well. Add 0-10 μl of Milli-Q water per well so the total volume of each well is 90 After shaking for about 1 minute, incubate at 37° C. for 2 minutes so the inhibitor fully interacts with neuraminidase; then add 10 μl of neuraminidase fluorescein substrate per well, mix by shaking, incubate at 37° C. for 30 minutes and then perform fluorescence measurement at excitation wavelength 322 nm and emission wavelength of 450 nm.

[7] = oseltamivir phosphate high dose group, 10 mg/kg po
[8] = oseltamivir phosphate low dose group, 5 mg/kg po
[9] = zanamivir high dose group, 0.5 mg/kg iv
[10] = zanamivir low dose group, 0.2 mg/kg iv
[11] = high dose coptisine group, 100 mg/kg p.o.
[12] = low dose coptisine group, 10 mg/kg p.o.
[13] = medium dose coptisine group, 25 mg/kg p.o.

`CCOC(=O)C1=C[C@@H](OC(CC)CC)[C@H](NC(C)=O)[C@@H](N)C1` [Oseltamivir phosphate, oseltamivir phosphate] was tested, and the “Impact on the ECG (myocardial damage)” value [1] was “effectively improve myocardial damage in a dose-dependent manner”, the “Effect on myocardial cell morphology (cardiac pathological sections)” value (“Effect on myocardial cell morphology” below) [2] was “effective in improving myocardial damage in a dose-dependent manner” and the “Effect on the expression level of myocardial neuraminidase” value (“Effect on the expression level” below) [3] was “effective in inhibiting the increase in neuraminidase expression induced by myocardial ischemia in a dose-dependent manner”. For the same molecule, the “Neuraminidase concentration (myocardial neuraminidase expression level)” value (from here on “Neuraminidase concentration”) [3, 7] was 16.7202 U/μL, the “Neuraminidase concentration” value [3, 8] was 21.547 U/μL and the “Serum CK-MB concentration” value [4, 7] was 2846.67. For the same molecule, the “Serum D-LDH concentration” value [4, 7] was 7.208 mU/ml, the “Serum CK-MB concentration” value [4, 8] was 2964.44 and the “Serum D-LDH concentration” value [4, 8] was 7.793 mU/ml. The “Electrocardiogram and cardiac pathology” value [5] was “significantly improve electrocardiogram and cardiac pathology in rats”.

With `CC(=O)N[C@H]1[C@H]([C@H](O)[C@H](O)CO)OC(C(=O)O)=C[C@@H]1N=C(N)N` [Zanamivir, zanamivir] the “Impact on the ECG (myocardial damage)” value [1] was “effectively improve myocardial damage in a dose-dependent manner”, the “Effect on myocardial cell morphology” value [2] was “effective in improving myocardial damage in a dose-dependent manner” and the “Effect on the expression level” value [3] was “effective in inhibiting the increase in neuraminidase expression induced by myocardial ischemia in a dose-dependent manner”. For the same molecule, the “Neuraminidase concentration” value [3, 9] was 16.9244 U/μL, the “Neuraminidase concentration” value [3, 10] was 21.8341 U/μL and the “Serum CK-MB concentration” value [4, 9] was 3544.44. For the same molecule, the “Serum D-LDH concentration” value [4, 9] was 8.383 mU/ml, the “Serum CK-MB concentration” value [4, 10] was 3713.33 and the “Serum D-LDH concentration” value [4, 10] was 8.804 mU/ml. The “Electrocardiogram and cardiac pathology” value [5] was “significantly improve electrocardiogram and cardiac pathology in rats”.

With `c1c2c(cc3c1OCO3)-c1cc3ccc4c(c3c[n+]1CC2)OCO4` [coptisine] the “Impact on the ECG (myocardial damage)” value [1] was “effectively improve myocardial damage in a dose-dependent manner”, the “Electrocardiogram compared with blank control group” value [1, 11] was “basically consistent with the blank control group” and the “Effect on myocardial cell morphology” value [2] was “effectively improve myocardial damage in a dose-dependent manner”. The Inflammatory cell infiltration [2, 11] was “no inflammatory cell infiltration”, the “Myocardial cell morphology and intercellular fissure compared with blank control group” value [2, 11] was “basically consistent with the blank control group” and the “Effect on the expression level” value [3] was “effectively inhibit the increase of neuraminidase expression induced by myocardial ischemia in a dose-dependent manner”. For the same molecule, the “Reduction of myocardial neuraminidase expression compared with the model group” value [3, 11] was “about 40%”, the “Reduction of myocardial neuraminidase expression compared with the model group” value [3, 12] was “about 21%” and the “Reduction of myocardial neuraminidase expression compared with the model group” value [3, 13] was “about 29%”. For the same molecule, the “Reduction of serum CK-MB and LDH levels compared with the model group” value (shortened to “Reduction of serum CK-MB and LDH levels”) [4, 11] was “about 40%”, the “Reduction of serum CK-MB and LDH levels” value [4, 12] was “about 20%” and the “Reduction of serum CK-MB and LDH levels” value [4, 13] was “about 30%”. For the same molecule, the “Neuraminidase inhibition, assessment in words” value ([6]; 50-200 μM) was “potent neuraminidase inhibitor”, the “Inhibitory rate on neuraminidase” value ([6]; coptisine concentration 50 μM) was 5.64% and the “Inhibitory rate on neuraminidase” value ([6]; coptisine concentration 100 μM) was 28.69%. For the same molecule, the “Inhibitory rate on neuraminidase” value ([6]; coptisine concentration 200 μM) was 56.25%.
